This is an account of results in PubChem BioAssay (NCI).

Test in all cases: DTP human tumour cell line panel, 48 h
Test [1] relates to M14 melanoma.
Test [2] has as its system HL-60(TB) leukemia.
The test system of test [3] is SK-MEL-28 melanoma.
The subject of test [4] is KM12 colon.
Test [5] deals with SF-268 CNS.
Test [6] deals with UACC-62 melanoma.
Test [7] concerns MDA-N.
The subject of test [8] is A549 NSCLC.
Test [9] has as its system HS 578T breast.
The test system of test [10] is UO-31 renal.
The subject of test [11] is HOP-62 NSCLC.
Test [12] deals with SF-295 CNS.
The subject of test [13] is OVCAR-5 ovarian.
In test [14] the test system is SNB-19 CNS.
Test [15] deals with SW-620 colon.
Test [16] has as its system U251 CNS.
The subject of test [17] is CCRF-CEM leukemia.
The test system of test [18] is HOP-92 NSCLC.
Test [19] deals with MDA-MB-231 breast.
Test [20] deals with T-47D breast.

Molecules are shown by their SMILES.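 Cultured in 96-well plates, cells were exposed to test compound for 48 hours across five concentrations. Definition used: TGI = concentration required for complete inhibition of growth.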 Where only a bound is given, the exact number is not on record here.

In the case of `CC1=CC(=O)[C@@H](O)[C@]2(C)[C@H]3[C@@]4(O)OC[C@]35[C@H]([C@@H](C)[C@H]4O)[C@@H](OC(=O)C(C)(C)CO)C(=O)O[C@@H]5C[C@@H]12`, the TGI in test [1] was 0.446 µM; in test [2], greater than 100 µM; in test [3], greater than 100 µM; in [4] it was 0.787 µM; in test [5], 0.236 µM; in [6], 0.86 µM. Also, the TGI was determined as 0.825 µM in test [7]; 41.5 µM in [8]; 0.897 µM in test [9]; 2.44 µM in test [10]; 1.63 µM in test [11]; 1.71 µM in test [12]. Further, the TGI in test [13] was 23.3 µM; in test [14], 0.626 µM; in [15] it was greater than 27.6 µM.
Take `CC(=O)NC1=C(NCC(C)(C)C)C(=O)c2ccccc2C1=O`: the TGI in test [1], in test [2], in [3], in [16], in test [4] and in test [5] was greater than 100 µM each time. The TGI in [6], in [17], in test [8], in test [10], in test [11] and in [12] was greater than 100 µM in each case. For the same compound, the TGI in test [14] and in test [15] was greater than 100 µM each time.
For the compound `CC1(C)CCc2ccc(OCCC(=O)O)cc2O1`, the TGI in test [1], in test [2], in [16], in [4], in test [5] and in [18] was greater than 100 µM throughout. In addition, the TGI in test [6], in test [17], in test [8], in test [10], in [11] and in [12] was greater than 100 µM throughout. In addition, the TGI in test [13] and in [15] was greater than 100 µM each time.
On to `O=C(CSC(=S)N1CCCCC1)Nc1nc2c(s1)CCCC2`, for which the TGI was greater than 100 µM in test [1]; 33.8 µM in [2]; greater than 100 µM in test [3]; greater than 100 µM in [16]; greater than 100 µM in test [4]; greater than 100 µM in [5]. In addition, the TGI in test [18] is 94.3 µM; in test [17], greater than 100 µM; in test [8], greater than 100 µM; in test [10], greater than 100 µM; in test [11], greater than 100 µM; in [12], 79.3 µM. Moreover, the TGI in test [13], in test [14] and in test [15] was greater than 100 µM each time.
Regarding `O=C(O)CCC(NC(=O)c1ccc(OCc2nc3cc(C(F)(F)F)ccc3nc2-c2ccccc2)cc1)C(=O)O` (centres undefined), the TGI in test [1], in test [2], in test [3], in test [16], in [4] and in test [5] was greater than 100 µM in each case. Besides, the TGI in test [18], in test [6], in test [17], in test [19], in [8] and in test [10] was greater than 100 µM in each case. In addition, the TGI in test [11], in test [12], in test [20], in test [13], in [14] and in test [15] was greater than 100 µM throughout.
Take `COc1cc(-c2ccc(Br)[nH]2)[nH]c1C=NCC(C)C`: the TGI in test [1] came out at 4.28 µM; in [2] it was 3.9 µM; in test [3] it was 7.67 µM; in [16], 3.88 µM; in test [4] it was 3.94 µM; in [5], 9.1 µM. Moreover, the TGI amounted to 4.01 µM in test [18]; 7.33 µM in test [6]; 3.24 µM in test [17]; 6.64 µM in test [19]; 3.62 µM in [8]; 5.26 µM in test [9]. Further, the TGI in test [10] was 4.77 µM; in [11], 3.39 µM; in test [12], 3.67 µM; in test [13], 5.05 µM.
For `CC1OC(OC2C(OC(=O)[C@]34CCC(C)(C)C[C@H]3C3=CC[C@@H]5[C@@]6(C)CC[C@H](OC7OC(C(=O)O)C(O)C(O)C7O)C(C)(C)[C@@H]6CC[C@@]5(C)[C@]3(C)C[C@H]4O)OCC(O)C2O)C(O)C(O)C1OC1OCC(OC2OCC(O)C(O)C2O)C(O)C1O` (some centres undefined), the TGI in [1] turned out to be 11.5 µM; in [2], 18.1 µM; in [3] it was 11.7 µM; in [16], 21.2 µM; in test [4], 14 µM; in test [5], 26.3 µM. In addition, the TGI came to 19.5 µM in test [18]; 23.7 µM in [6]; 11.9 µM in test [19]; 15.5 µM in test [8]; 37.9 µM in test [9]; 4.84 µM in test [10]. In addition, the TGI in [11] was found to be 27.1 µM; in test [12], 22.2 µM; in test [20] it was 26.3 µM; in [13], 20.1 µM; in test [14], 18.4 µM; in test [15], 23.1 µM.
Take `C[n+]1c2ccccc2c(NCC(=O)O)c2ccccc21`: the concentration for total growth inhibition (TGI) in test [1], in test [2], in test [16], in [4], in test [5] and in [6] was greater than 100 µM in each case. Moreover, the concentration for total growth inhibition (TGI) in test [8], in test [10], in [11], in [12], in test [13] and in test [14] was greater than 100 µM throughout. The same compound gave a TGI in test [15] greater than 100 µM.
With `Cc1ccc(Nc2nc(=O)c3c4ccccc4n(C(=O)OC(C)(C)C)c3s2)cc1`, the TGI in test [1] was 44.1 µM; in test [2], 59 µM; in [3], greater than 100 µM; in test [16] it was greater than 100 µM; in [4], 54.5 µM; in test [5] it was 59.3 µM. Also, the TGI was greater than 100 µM in test [18]; 63.5 µM in test [6]; greater than 100 µM in test [17]; greater than 100 µM in test [19]; greater than 100 µM in [8]; greater than 100 µM in [9]. Also, the TGI in test [10] is 22.8 µM; in test [11] it was 64.1 µM; in test [12] it was 65.6 µM; in test [20], greater than 100 µM; in [13], 48.3 µM; in [14], greater than 100 µM. This compound registered a TGI in [15] greater than 100 µM.
Take `Cc1c2n(c(=O)[nH]c1=O)C1OC(CO)C(O2)C1N=[N+]=[N-]` (centres undefined): the TGI in [2], in test [3], in test [16], in test [4], in test [5] and in test [18] was greater than 100 µM each time. Further, the TGI in [6], in test [17], in [8], in test [10], in test [11] and in test [12] was greater than 100 µM in each case. Also, the TGI in test [14] and in test [15] was greater than 100 µM each time.
As for `COc1cc2c(c(OC)c1O)-c1ccc(SC)c(=O)cc1C(NC(C)=O)CC2` (centres undefined), the TGI in test [1] was greater than 100 µM; in test [3], greater than 100 µM; in [16] it was greater than 5.55 µM; in [5] it was greater than 100 µM; in [18], greater than 100 µM; in test [6] it was greater than 100 µM. For the same compound, the concentration for total growth inhibition (TGI) was greater than 100 µM in test [17]; greater than 100 µM in test [8]; greater than 100 µM in [10]; greater than 100 µM in test [11]; 0.0868 µM in test [12]; greater than 100 µM in test [13]. For the same compound, the TGI in test [14] and in [15] was greater than 100 µM each time.
Regarding `CC(=O)c1cccc(Nc2nc3ccccc3c3occc23)c1`, the TGI in test [1] is greater than 100 µM; in test [2], greater than 100 µM; in [3] it was greater than 100 µM; in test [16], 55.9 µM; in test [4], greater than 100 µM; in test [5], 86.7 µM. Besides, the TGI was 33 µM in test [18]; greater than 100 µM in test [17]; 56.4 µM in [19]; greater than 100 µM in test [8]; 34.6 µM in test [11]; 48.4 µM in test [12]. The figures for the TGI in test [20], in [13] and in test [14] were greater than 100 µM, greater than 100 µM and 60.9 µM, respectively.
Consider `Cc1cc(=O)[nH]c(NNC(C#N)c2cccc(O)c2)n1` (centres undefined), for which the TGI in test [1], in [2], in test [3], in test [16], in [4] and in test [5] was greater than 100 µM throughout. The TGI in test [18], in test [6], in [17], in test [8], in test [10] and in test [11] was greater than 100 µM each time. Also, the TGI in test [12], in [13] and in [15] was greater than 100 µM throughout.
On to `CC(C)=C1C(=O)C[C@]2(C)C[C@H]3O[C@]3(C)CC[C@@H]3O[C@@]3(C)CC[C@@H]12`, for which the TGI in test [1], in test [2], in test [3], in [16], in test [4] and in test [5] was greater than 50 µM in each case. Further, the TGI in test [18], in [6], in [17], in test [19], in test [8] and in test [9] was greater than 50 µM each time. In addition, the total growth inhibition concentration (TGI) in [10], in [11], in [12], in test [20], in test [13] and in test [14] was greater than 50 µM in each case. For the same compound, the TGI in test [15] is greater than 50 µM.
On to `O=C1NC(N/N=C/c2ccccc2)=N/C1=C\c1ccco1`, for which the TGI was greater than 100 µM in test [1]; greater than 100 µM in test [2]; greater than 100 µM in test [3]; 68.4 µM in test [16]; greater than 100 µM in test [4]; 75.6 µM in test [5]. For the same compound, the TGI in test [18] is 37.3 µM; in test [6] it was greater than 100 µM; in test [17], greater than 100 µM; in [19] it was greater than 100 µM; in [8], 81.3 µM; in [9], 78.3 µM. Also, the TGI in [10] was 86 µM; in test [11], 50.6 µM; in test [12], greater than 100 µM; in test [20] it was greater than 100 µM; in test [13], greater than 100 µM; in [14] it was greater than 100 µM. In addition, in test [15], the TGI is greater than 100 µM.
On to `N#Cc1cccc2c1Sc1ccccc1N2`, for which the TGI in test [1], in test [2], in [16], in test [4], in test [5] and in test [18] was greater than 100 µM each time. In addition, the TGI in test [6] is greater than 100 µM; in test [17] it was greater than 100 µM; in test [19], greater than 100 µM; in [8] it was greater than 100 µM; in [10] it was 87.9 µM; in [12] it was 69.1 µM. The TGI in [20] is greater than 100 µM; in test [13], 72.8 µM; in [14] it was greater than 100 µM; in test [15], greater than 100 µM.
Turning to `N/C(=N\N=C/c1ccc(O)c(O)c1O)NO`, the TGI was 41.4 µM in test [2]; greater than 100 µM in test [3]; greater than 83.6 µM in [16]; 72.5 µM in test [4]; greater than 100 µM in test [5]; greater than 100 µM in test [18]. Further, the TGI is 41.5 µM in test [6]; greater than 58.1 µM in [17]; greater than 100 µM in test [8]; greater than 100 µM in test [10]; greater than 56.4 µM in test [11]; greater than 40 µM in [12]. The TGI in test [13] is greater than 73.6 µM; in [14], greater than 100 µM; in [15], 39.1 µM.
